Data: patent US11419869B2, “Dosage forms and regimens for amino acid compounds” (Pliant Therapeutics, Inc., priority 2019, dated 2022)

These compounds were tested against recombinant human integrin αvβ6 (Homo sapiens (Human), UniProt P06756+P18564) (assay: Solid Phase Integrin αvβ6 Binding Assay (Examples B1, B2)). Conditions: TGFβ1 LAP ligand, values given in four ranges, read-out: αvβ6 Inhibition IC50 (nM)-range.
Experimental: (§1) Microplates were coated with recombinant human integrin αvβ6 (2 μg/mL) in PBS (100 μL/well 25° C., overnight). The coating solution was removed, washed with wash buffer (0.05% Tween 20; 0.5 mM MnCl2; in 1×TBS). The plate was blocked with 200 μL/well of Block Buffer (1% BSA; 5% sucrose; 0.5 mM MnCl2; in 1×TBS) at 37° C. for 2 h. Dilutions of testing compounds and recombinant TGFβ1 LAP (0.67 μg/mL) in binding buffer (0.05% BSA; 2.5% sucrose; 0.5 mM MnCl2; in 1×TBS) were added. The plate was incubated for 2 hours at 25° C., washed, and incubated for 1 hour with Biotin-Anti-hLAP. Bound antibody was detected by peroxidase-conjugated streptavidin. The IC50 values for testing compounds were calculated by four-parameter logistic regression.
The compounds tested were compound samples prepared according to procedures described in the Synthetic Examples section, with the stereochemical purity as indicated in the Examples.
as §1, with “A third series of exemplary compounds was selected for testing in the solid phase integrin αvβ6 binding assay. The compounds tested were compound samples prepared according to procedures described in the Synthetic Examples section, with the stereochemical purity as indicated in the Examples. As in Example B1, microplates were coated” for “Microplates were coated”, “calculated by a four-parameter logistic” for “calculated by four-parameter logistic”

Sequence of recombinant human integrin αvβ6 (P06756 31-992): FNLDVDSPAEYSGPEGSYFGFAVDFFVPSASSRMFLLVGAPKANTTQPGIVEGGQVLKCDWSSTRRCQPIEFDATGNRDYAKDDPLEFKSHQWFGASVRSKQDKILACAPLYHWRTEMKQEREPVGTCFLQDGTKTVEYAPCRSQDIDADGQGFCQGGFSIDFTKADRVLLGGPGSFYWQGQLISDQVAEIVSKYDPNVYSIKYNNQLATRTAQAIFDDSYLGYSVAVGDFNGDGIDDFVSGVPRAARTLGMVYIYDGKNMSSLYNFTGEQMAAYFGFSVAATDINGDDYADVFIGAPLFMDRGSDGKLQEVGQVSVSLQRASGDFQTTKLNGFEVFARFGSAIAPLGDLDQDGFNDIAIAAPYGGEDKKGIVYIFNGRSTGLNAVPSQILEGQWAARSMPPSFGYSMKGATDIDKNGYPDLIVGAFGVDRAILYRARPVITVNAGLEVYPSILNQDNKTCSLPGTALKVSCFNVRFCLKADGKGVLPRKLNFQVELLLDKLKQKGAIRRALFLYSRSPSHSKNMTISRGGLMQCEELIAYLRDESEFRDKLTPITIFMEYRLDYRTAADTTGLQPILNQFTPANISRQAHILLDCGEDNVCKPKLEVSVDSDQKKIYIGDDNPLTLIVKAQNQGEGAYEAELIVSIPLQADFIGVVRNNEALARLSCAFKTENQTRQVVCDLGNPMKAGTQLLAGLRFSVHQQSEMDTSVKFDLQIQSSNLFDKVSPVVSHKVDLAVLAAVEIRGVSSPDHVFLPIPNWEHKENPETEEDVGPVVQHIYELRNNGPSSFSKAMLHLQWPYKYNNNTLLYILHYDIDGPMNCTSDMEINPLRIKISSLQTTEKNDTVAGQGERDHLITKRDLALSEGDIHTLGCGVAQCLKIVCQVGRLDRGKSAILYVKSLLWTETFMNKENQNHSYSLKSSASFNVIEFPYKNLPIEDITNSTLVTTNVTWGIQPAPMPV
Sequence of recombinant human integrin αvβ6 (P18564 22-707): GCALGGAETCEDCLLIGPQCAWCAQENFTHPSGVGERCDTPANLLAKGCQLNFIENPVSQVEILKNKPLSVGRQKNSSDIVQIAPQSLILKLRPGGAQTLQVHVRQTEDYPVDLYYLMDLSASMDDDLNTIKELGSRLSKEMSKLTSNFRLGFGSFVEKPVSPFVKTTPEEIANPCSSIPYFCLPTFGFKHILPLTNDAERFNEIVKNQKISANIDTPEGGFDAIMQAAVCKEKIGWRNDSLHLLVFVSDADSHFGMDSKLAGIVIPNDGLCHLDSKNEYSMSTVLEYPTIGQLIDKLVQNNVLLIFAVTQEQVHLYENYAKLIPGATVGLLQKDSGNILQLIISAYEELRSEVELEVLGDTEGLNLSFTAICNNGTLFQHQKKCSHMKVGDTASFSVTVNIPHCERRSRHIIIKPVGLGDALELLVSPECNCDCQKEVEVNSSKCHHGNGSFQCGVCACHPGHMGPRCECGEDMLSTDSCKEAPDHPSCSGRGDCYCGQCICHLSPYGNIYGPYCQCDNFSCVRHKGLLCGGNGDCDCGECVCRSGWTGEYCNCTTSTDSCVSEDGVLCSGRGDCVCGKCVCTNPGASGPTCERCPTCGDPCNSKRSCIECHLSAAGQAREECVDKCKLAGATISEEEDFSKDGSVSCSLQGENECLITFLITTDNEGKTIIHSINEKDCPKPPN

IC50, < 50 nM:
COCCN(CCCCc1ccc2c(n1)NCCC2)CC[C@H](Nc1ncnc2cc(F)c(F)cc12)C(=O)O [Compound 21, (S)-2-((6,7-difluoroquinazolin-4-yl)amino)-4-((2-methoxyethyl) (4-(5,6,7,8-tetrahydro-1,8-naphthyridin-2-yl)butyl)amino) butanoic acid]
COCCN(CCCCc1ccc2c(n1)NCCC2)CC[C@H](Nc1cc(C(F)(F)F)nc(C)n1)C(=O)O [Compound 22, (S)-4-((2-methoxyethyl) (4-(5,6,7,8-tetrahydro-1,8-naphthyridin-2-yl)butyl)amino)-2-((2-methyl-6-(trifluoromethyl)pyrimidin-4-yl)amino) butanoic acid]
COCCN(CCCCc1ccc2c(n1)NCCC2)CC[C@H](Nc1cc(C(F)F)ncn1)C(=O)O [Compound 23, (S)-2-((6-(difluoromethyl)pyrimidin-4-yl)amino)-4-((2-methoxyethyl) (4-(5,6,7,8-tetrahydro-1,8-naphthyridin-2-yl)butyl)amino) butanoic acid]
COCCN(CCCCc1ccc2c(n1)NCCC2)CC[C@H](Nc1ccnc(C(F)(F)F)n1)C(=O)O [Compound 24, (S)-4-((2-methoxyethyl) (4-(5,6,7,8-tetrahydro-1,8-naphthyridin-2-yl)butyl)amino)-2-((2-(trifluoromethyl)pyrimidin-4-yl)amino) butanoic acid]
CO[C@@H](C)CN(CCCCc1ccc2c(n1)NCCC2)CC[C@H](Nc1ncnc2ccccc12)C(=O)O [Compound 25, (S)-4-(((S)-2-methoxypropyl) (4-(5,6,7,8-tetrahydro-1,8-naphthyridin-2-yl)butyl)amino)-2-(quinazolin-4-ylamino) butanoic acid]
COCCN(CCCCc1ccc2c(n1)NCCC2)CC[C@H](Nc1cc(C)nc(C(F)(F)F)n1)C(=O)O [Compound 26, (S)-4-((2-methoxyethyl) (4-(5,6,7,8-tetrahydro-1,8-naphthyridin-2-yl)butyl)amino)-2-((6-methyl-2-(trifluoromethyl)pyrimidin-4-yl)amino) butanoic acid]
CS(=O)(=O)CCN(CCCCc1ccc2c(n1)NCCC2)CC[C@H](Nc1ncnc2ccccc12)C(=O)O [Compound 27, (S)-4-((2-(methylsufonyl)ethyl) (4-(5,6,7,8-tetrahydro-1,8-naphthyridin-2-yl)butyl)amino)-2-(quinazolin-4-ylamino) butanoic acid]
O=C(O)[C@H](CCN(CCCCc1ccc2c(n1)NCCC2)CCOc1ccccc1)Nc1ncnc2ccccc12 [Compound 28, (S)-4-((2-phenoxyethyl) (4-(5,6,7,8-tetrahydro-1,8-naphthyridin-2-yl)butyl)amino)-2-(quinazolin-4-ylamino) butanoic acid]
O=C(O)[C@H](CCN(CCCCc1ccc2c(n1)NCCC2)CCC(F)F)Nc1ncnc2ccccc12 [Compound 29, (S)-4-((3,3-difluoropropyl) (4-(5,6,7,8-tetrahydro-1,8-naphthyridin-2-yl)butyl)amino)-2-(quinazolin-4-ylamino) butanoic acid]
O=C(O)[C@H](CCN(CCCF)CCCCc1ccc2c(n1)NCCC2)Nc1ncnc2ccccc12 [Compound 30, (S)-4-((3-fluoropropyl) (4-(5,6,7,8-tetrahydro-1,8-naphthyridin-2-yl)butyl)amino)-2-(quinazolin-4-ylamino) butanoic acid]
COC[C@@H](F)CN(CCCCc1ccc2c(n1)NCCC2)CC[C@H](Nc1ncnc2ccccc12)C(=O)O [Compound 31, (S)-4-(((S)-2-fluoro-3-methoxypropyl) (4-(5,6,7,8-tetrahydro-1,8-naphthyridin-2-yl)butyl)amino)-2-(quinazolin-4-ylamino) butanoic acid]
